Assay [1] has as its system experimental autoimmune encephalomyelitis (EAE) provoked by myelin oligodendrocyte glycoprotein (MOG). As to the kind of experiment: CR EAE provoked by MOG in mice, s.c. treatment. It counts as in vivo. Particulars: for ASC (treatment from day 5 to day 22): HMW Zn-HA 10 mg/kg, ZnCl2 equivalent to 0.8 mg/kg Zn2+; for Effect on the EAE model (in words): mice. From the text:
The only adequate and widely used model available for purposes of preclinical investigations of multiple sclerosis is the experimental autoimmune encephalomyelitis (EAE) (Mokhatarian et al., Nature 309, 356-358. (1984); Raine et al., Lab. Invest. 31, 369-380. (1974)), an inflammatory disease of the central nervous system transmitted by CD4^+ T-lymphocytes. Although the clinical complexity of the model is moderate compared with the disease investigated, its use is unavoidable in a research aimed at MS. Preclinical tests of Copolymer-1 (Copaxone) and interferon beta-1 already approved for human treatment, as well as those of the new drugs under development were/are carried out using this model (Popovic et al., Ann. Neurol. 51, 215-223. (2001); Stanislaus et al., Neurosci. Lett. 333, 167-170. (2002)). […] That's why in our experiments CR EAE provoked by myelin oligodendrocyte glycoprotein (MOG) in mice has been studied (Amor et al., J. Immunol. 153, 4349-4356. (1994)). In the middle of the 1960s the effect of hyaluronan sodium salt was investigated by Romanian research workers on EAE model.
Next, the possible effect of the HMW Zn-HA (10 mg/kg in 200 μl of physiological saline, subcutane) on the time of appearance of clinical symptoms has been investigated.
Tests were carried out on groups of mice (n=6-10 mice/group) using two types of treatment: (i) prophylactic, wherein administration happens from day 5 to day 22 after inoculation of MOG, or in a single case from day 9-10 to day 28 after that (marked with # in tables 2 and 3); and (ii) therapeutic treatment, wherein administration of the Zn-HA happened from day 13 to day 28 after the EAE had been induced (marked with * in tables 2 and 3).
The mice were given 10 mg/kg HMW Zn-HA s. c. daily and clinical data thereof were obtained from day 10 to day 28 and day 5 to day 22, respectively, after the EAE had been induced. The results were calculated from the average daily clinical data to give the average summed up clinical data (ASC).
In the studies summarized in Tables 1 to 4 each mouse used as EAE model received 200 μl s. c. injection each; the injection contained the active ingredient or the carrier (0.9% sodium chloride aqueous solution). To obtain the doses given in terms of mg/kg bodyweight above solutions of different concentration were prepared as follows: […]

A further assay deals with EAE. The settings on record: rabbits, intramuscularly; cited from earlier work.
For assay [2], the target named is matrix metalloproteinases, particularly the MMP-9 (Homo sapiens, UniProt P14780). The settings on record: cited from earlier work.
For assay [3] the following is noted: compared with the sodium-HA salt; cited from earlier work.

“Also recorded” adds a separate entry of the source.

Chain of matrix metalloproteinases, particularly the MMP-9 (P14780 94-707): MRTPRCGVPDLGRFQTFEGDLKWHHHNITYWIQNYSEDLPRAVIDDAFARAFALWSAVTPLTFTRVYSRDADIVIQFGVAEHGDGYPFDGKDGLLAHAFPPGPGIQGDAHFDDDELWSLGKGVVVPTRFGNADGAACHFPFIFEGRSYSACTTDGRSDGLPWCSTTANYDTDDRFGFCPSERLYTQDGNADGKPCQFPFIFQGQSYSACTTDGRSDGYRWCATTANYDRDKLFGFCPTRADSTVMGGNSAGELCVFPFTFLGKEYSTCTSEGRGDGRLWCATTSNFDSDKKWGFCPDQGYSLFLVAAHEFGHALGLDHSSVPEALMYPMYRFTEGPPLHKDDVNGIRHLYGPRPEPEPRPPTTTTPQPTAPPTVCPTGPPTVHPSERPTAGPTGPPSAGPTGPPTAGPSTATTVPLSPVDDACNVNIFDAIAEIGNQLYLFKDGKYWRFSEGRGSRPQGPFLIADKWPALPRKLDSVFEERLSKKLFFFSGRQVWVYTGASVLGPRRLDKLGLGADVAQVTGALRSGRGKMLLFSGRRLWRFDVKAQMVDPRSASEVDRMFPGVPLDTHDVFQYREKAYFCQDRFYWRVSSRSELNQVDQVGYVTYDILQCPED

Na-hyaluronan [HMW Na-HA]: the “ASC (treatment from day 5 to day 22)” value in assay [1] amounted to 14.2 ± 1.9. Besides, the “Effect on the EAE model (in words)” value in assay [1] (listed as Na-HA) is recorded as “ineffective”; in assay [1] (listed as Na-HA salt), “ineffective; also recorded: did not show significant effect”; in assay [1] (listed as Na-hyaluronan) it was “didn't exert any influence”. Besides, the “Effect on development of EAE (in words)” value in the assay on EAE is “did not inhibit, but in certain cases did assist the development of EAE”. Moreover, the “Inhibitory effect on tissue damaging enzymes (matrix metalloproteinases, particularly the MMP-9)” value in assay [2] is “does not show the latter effect”.

For the molecule `[Cl-].[Cl-].[Zn+2]` [ZnCl2, zinc chloride], in assay [1], the “ASC (treatment from day 5 to day 22)” value is 14.2 ± 3.3 and the “Effect on the EAE model (in words)” value is on record as “did not show significant effect”. Also, the “Effect on the EAE model (in words)” value in assay [1] (listed as Zn^2+) is recorded as “ineffective”.

As to zinc-hyaluronan complex [zinc-HA], the “Inhibitory effect on tissue damaging enzymes (matrix metalloproteinases, particularly the MMP-9)” value in assay [2] is listed as “inhibitory effect”. In addition, the Antioxidant activity result in assay [3] is “increased antioxidant activity”.

The values are drawn from patent US20070123488A1, “Pharmaceutical composition comprising a zinc-hyaluronate complex for the treatment of multiple sclerosis” (RICHTER GEDEON VEGYESZETI GYAR RT., priority 2003, published 2007).
